Patent US20080269202A1, “Novel 2,3-benzodiazepine derivatives and their use as antipsychotic agents” (Teva Pharmaceutical Industries Ltd., priority 2007, published 2008)
Where two headings read alike, the source gives them in different places.

Legend:
[1] = system: PCP-induced hypermotility; test: PCP-induced hypermotility (motor activity meter) in mice; type: in vivo; conditions: Mus musculus, read-out: PCP-hypermotility ED50 mg/kg po.
Source text: (§1) Alterations in the mesocortical dopaminergic tract are thought to be responsible for the negative symptoms of schizophrenia (flattening of affect, poverty of speech, lack of volition and drive, loss of feeling, social withdrawal and decreased spontaneous movement). The best animal model of these symptoms is the behavioral changes induced by PCP (phencyclidine). The PCP-induced stereotypy and hypermotility was investigated in mice according to Ljungberg and Ungerstedt (Ljungberg, T., Ungerstedt, U. Pharmacol. Biochem. Behav., 1985, 23, 479,) and Jawitt (Jawitt, D. C. Amer. J. Psychiatry, 1991, 145, 1301). The stereotypy experiments were carried out in male CD1 mice weighing 20-25 g. The animals were starved for 16 hours before treatment without limitation of water availability. In the stereotypy studies, 30 min before treatment, mice were individually placed into small, transparent acrylic cages for habituation. Test substances were administered orally in a volume of 0.1 ml/10 g. 30 min later mice were treated with PCP with an intraperitoneal dose of 7 mg/kg. Stereotyped behavior was observed every 5th min for 60 min and scored from 0 to 4. The scores were summed individually, averaged and compared to the control group.
The motor activity was measured in a 4-channel activity meter. The apparatus consisted of acrylic cages (40×40×32 cm) equipped with 16 pairs of infrared photocells. The photocells' beam, when broken, signaled a count, which was then recorded by a computer. A 5 mg/kg intraperitoneal dose of PCP was administered 5 min before the experiment. This dose of PCP induces 110-120% increase of the spontaneous motor activity. Test substances were administered orally 15 min before experiment, and mice were investigated individually in the experimental cages for 60 min. 10 mice/group were used. The total counts for each experimental group were compared to the vehicle treated control group.
(§2) In both studies the ED50 values were calculated by the Litchfield-Wilcoxon's method (J. Pharmacol. Exp. Ther. 1949, 96, 49).

[2] = system: apomorphine-induced climbing; test: apomorphine-induced climbing test in mice; type: in vivo, CD1 mice; conditions: for ED50: Mus musculus, read-out: Climbing ED50 (mg/kg ip.)
Experimental: (§3) Anti-apomorphine effects were investigated in the climbing test in mice mediated through the mesolimbic and stereotypy test in rats mediated through the nigrostriatal system. Conventional antipsychotics antagonize both apomorphine-induced behaviours, while known atypical antipsychotics are weaker against apomorphine stereotypy.
The climbing test was carried out according to Protais et al. (Protais, P. et al. Psychopharmacologia, 1976, 50, 1.) Stereotyped behavior was induced in food deprived (for 16 hours) male CD1 mice weighing 20-25 g body by apomorphine HCl (SIGMA) in a s.c. dose of 2 mg/kg. Mice were placed individually into cylinders having 12 cm diameter and consisting of vertical bars of 2 mm diameter where apomorphine treated animals tended to adopt a vertical position in contrary to vehicle treated controls. Test substances were applied ip. 30 min before apomorphine.
10 and 20 min after apomorphine treatment the climbing behaviour was evaluated by scores of 0-2. 10 mice/group were used. The scores of the two readings were summed individually, meaned and compared to the control. The ED50 values were calculated by Litchfield-Wilcoxon's method (Litchfield Jr. J. T., Wilcoxon, F. J. Pharmacol. Exp. Ther. 1949, 96, 49,).

[3] = system: apomorphine-induced stereotyped behavior; test: apomorphine-induced stereotypy; type: in vivo, CD1 mice; conditions: for ED50: Mus musculus, read-out: Stereotypy ED50 (mg/kg po.)
Source text: as §3
Apomorphine-induced stereotypy was investigated according to Costall and Naylor (B. Costall and R. J. Naylor, Eur. J. Pharmacol. 1972, 18, 95) in male CD1 mice of 20-25 g body weight after 16 hours deprivation of food. 30 min before treatment mice were individually placed into small, transparent acrylic cages for habituation. Test substances were administered orally in a volume of 0.1 ml/10 g. 30 min later mice were treated with apomorphine HCl (SIGMA) in a subcutaneous dose of 2 mg/kg. […] The scores were summed individually, meaned and compared to the control group. The ED50 values were calculated by Litchfield-Wilcoxon's method (J. Pharmacol. Exp. Ther. 1949, 96, 49,).

[4] = system: DOPA accumulation in eminentia mediana; test: DOPA accumulation in eminentia mediana after NSD-1015; type: in vivo, Sprague-Dawley rats; conditions: for DOPA levels (pmol/mg prot): rat eminentia mediana, mean ± SEM
Experimental: Acute administration of atypical antipsychotics results in enhanced accumulation of dihydroxyphenylalanine (DOPA) in the […] after the inhibition of DOPA decarboxylase. In contrast, DOPA accumulation is not altered by the typical antipsychotics (Andersson, G, Albinsson, A, Pettersson, G, Arzneimittelforschung. 1990, 40, 237; Gudelsky, G. A., Meltzer, H. Y. Neuropsychopharmacology, 1989, 2, 45). The effect of the compound of Example 121 on DOPA-accumulation was measured by analyzing the levels of DOPA in […]. […] (EM), were dissected out from the brains on ice-cold plates and kept at -70° C. until they were assayed for DOPA by HPL-EC. Statistical analysis was carried out using one-way ANOVA followed by Duncan test.

catalepsy = catalepsy test in rats; type: in vivo, CDBR rats; conditions: for Catalapsy scores: dose 10 mg/kg ip, sum of 8 readings over 4 hours; for cataleptogenic potential: intraperitoneal, result in words
Source text: In order to investigate the potential side effect profile, the catalepsy test in rats has been carried out according to Costall and Naylor (Costall, B., Naylor, R. J. Arzneimittelforschung/Drug Res., 1973, 23, 674).
Catalepsy is defined as a failure to correct an externally imposed, unusual posture over a prolonged time. Neuroleptics which have direct inhibitory action on the nigrostriatal dopamine system induce catalepsy. It may be reflected by the Parkinson-like extrapyramidal symptoms seen clinically with administration of classical antipsychotics. The experiments were carried out in male CDBR rats weighing 300-400 g. The volume of administration was 0.25 ml/100 g body weight. The animals were starved for 16 hours before treatment, water was delivered ad libitum. After intraperitoneal administration of the test substances, the forepaws of the rats were placed on a horizontal stainless steel bar elevated to 10 cm high, while the hind paws remained on a metal plate. The semi-automatic 5-channel catalepsy meter measured the time spent in this unusual posture by an electronic stop-clock. The catalepsy time was scored from 0 to 5 according to the time spent in the unusual posture. […] Means of groups were calculated.

PCP-induced stereotypy = PCP-induced stereotypy in mice; type: in vivo, CD1 mice; conditions: Mus musculus, read-out: PCP-stereotypy ED50 mg/kg po.
Source text: as §1, §2

[5] = system: conditioned avoidance responses; test: conditioned avoidance: pole jumping test in rats; type: in vivo, Long-Evans rats
Source text: For measuring the antipsychotic potential in a non-perturbed dopamine system the pole jumping assay was used (Cook, L., Catania, A. C. Fed. Proc. 1964, 23, 818.)
This method is an active avoidance learning test. Long-Evans rats, weighing 250-450 g, were used in the experiments. Rats are placed in a box (25×25×25 cm) on a grid floor in the center of which there is a pole. After a latency period, light is turned on for a given time then the floor is electrified to deliver an unpleasant footshock. Rats may learn to avoid the shock by jumping up to grasp the pole. As soon as the rat jumps up the light and shock are turned off. Each light-on period lasted for 15 s, shock time for 30 s with an intertrial interval of 15 s. 30 such trials per day were repeated during the learning period until animals reach a minimum of 80% avoidance rate. During the experimental sessions 20 trials/day were run. Test substances were administered ip. in a volume of 0.25 ml/100 g body weight. Significances were calculated by Student's t test.

[6] = system: PCP-induced disruption of PPI; test: PCP-induced disruption of pre-pulse inhibition (PPI); conditions: for reversal of PCP-induced disruption of PPI: PCP 8 mg/kg, C57B1/6J mice
Source text: Male C57B1/6J mice from Jackson Laboratories (Bar Harbor, Me.) were used in this study. Mice were received at 6-weeks of age. Upon receipt, mice were assigned unique identification numbers (tail marked) and were group housed in OPTImice cages. All animals remained housed in groups of four during the remainder of the study. […] During the period of acclimation, mice were examined on a regular basis, handled, and weighed to assure adequate health and suitability. Mice were maintained on a 12/12 light/dark cycle with the light on at 6:00 a.m. The room temperature was maintained between 20 and 23° C. with a relative humidity maintained between 30% and 70%. Food and water were provided ad libitum for the duration of the study. In each test, animals were randomly assigned across treatment groups.
All compounds were injected i.p. at a dose volume of 10 ml/kg. […] Phenylcyclohexylpiperidine (PCP) (8 mg/kg) was dissolved in sterile water.
The acoustic startle measured an unconditioned reflex response to external auditory stimulation. […] Mice were placed in the PPI chambers (Med Associates) for a 5 min session of white noise (70 dB) habituation.
After the acclimation period the test session was automatically started. The session started with a habituation block of 6 presentations of the startle stimulus alone, followed by 10 PPI blocks of 6 different types of trials. Trial types are: null (no stimuli), startle (120 dB), startle plus prepulse (4, 8 and 12 dB over background noise i.e. 74, 78 or 82 dB) and prepulse alone (82 dB). Trial types were presented at random within each block.
Each trial started with a 50 ms null period during which baseline movements were recorded. There was a subsequent 20 ms period during which prepulse stimuli were presented and responses to the prepulse measured. After further 100 ms the startle stimuli were presented for 40 ms and responses recorded for 100 ms from startle onset. Responses were sampled every ms. The inter-trial interval was variable with an average of 15 s (range from 10 to 20 s). In startle alone trials the basic auditory startle was measured and in prepulse plus startle trials the amount of inhibition of the normal startle was determined and expressed as a percentage of the basic startle response (from startle alone trials), excluding the startle response of the first habituation block.
Data were analyzed by analysis of variance (ANOVA) followed by post-hoc comparisons with Fisher Tests when appropriate. An effect was considered significant if p<0.05. Data are represented as the mean and standard error to the mean.

PCP-induced locomotion = test: PCP induced locomotor activity test (open field); type: in vivo, mice; conditions: all doses (3, 7, 14, 28, 40 mg/kg) by gavage, PCP 5 mg/kg, vs vehicle
Experimental: The effects of compounds 121 and 183, administered orally, were also evaluated in the PCP induced locomotor activity test. Compound 121 was designated as “Compound A” and Compound 183 was designated as “Compound B” for purposes of this study. In general, the study aimed to test Compounds A and B for potential antipsychotic activity in PCP treated mice.
Compounds A & B were dissolved in 3% Tween: Compound A: 1, 3, 6, 10, and 15 mg/kg; Compound B: 3, 7, 14, 28, and 40 mg/kg; Compounds A+B were administered by gavage.
PCP (5 mg/kg) was dissolved in sterile injectable water.
The open field (“OF”) test assessed both anxiety and locomotor behavior. The open field chambers are Plexiglas square chambers (27.3×27.3×20.3 cm; Med Associates Inc., St Albans, Vt.) surrounded by infrared photobeams (16×16×16) to measure horizontal and vertical activity. The analysis was configured to divide the open field into a center and periphery zone. Distance traveled was measured from horizontal beam breaks as the mouse moved whereas rearing activity was measured from vertical beam breaks.
Mice were brought to the activity experimental room for at least 1 hr acclimation to the experimental room conditions prior to testing. […]
Data was analyzed to show baseline activity (activity during the 30 min prior to PCP injection) and PCP-induced activity (activity during the 60 min after PCP injection).

[7] = mice, ip. 30 min before apomorphine 2 mg/kg s.c.

**Q.** Which results are given for `CN(C)CCCN1c2ccccc2Sc2ccc(Cl)cc21` [Chlorpromazine, reference compound]?
**A.** ED50 ([1]; mice, po. 15 min before experiment, PCP 5 mg/kg ip): 1.86 mg/kg; ED50 [2, 7]: 1.2 mg/kg; inhibition of apomorphine-induced climbing ([2]; mice, result in words): inhibited both behaviors; ED50 ([3]; mice, po. 30 min before apomorphine 2 mg/kg s.c.): 3.6 mg/kg; inhibition of apomorphine-induced stereotyped behavior ([3]; mice, result in words): inhibited both behaviors; DOPA levels (pmol/mg prot) ([4]; 10 mg/kg ip, NSD-1015 90 min after treatment): 56.4 ± 4.1 pmol/mg prot; effect on levels of DOPA in the EM of rats ([4]; result in words, vs saline): had no effect; Catalapsy scores (catalepsy): 10:8.7; cataleptogenic potential (catalepsy): induces severe catalepsy

**Q.** With `CN1CCN(C2=Nc3cc(Cl)ccc3Nc3ccccc32)CC1` [Clozapine, reference compound] as the molecule, how does the ED50 [1] read?
**A.** 1.81 mg/kg

**Q.** And the ED50 (PCP-induced stereotypy)?
**A.** 3.76 mg/kg

**Q.** And the ED50 [2]?
**A.** 2.64 mg/kg

**Q.** And the ED50 [3]?
**A.** 22.9 mg/kg

**Q.** And the “DOPA levels (pmol/mg prot)” value ([4]; 20 mg/kg ip)?
**A.** 87.4 ± 9.5 pmol/mg prot

**Q.** What about the “MED (mg/kg ip), minimal effective dose (stat. sign.)” value [5] of the same molecule?
**A.** 2 mg/kg

**Q.** What about the Catalapsy scores (catalepsy) of the same molecule?
**A.** 10:0.14

**Q.** What about the cataleptogenic potential (catalepsy) of the same molecule?
**A.** lack cataleptogenic potential

**Q.** With `COc1cc2c(cc1OC)C(c1ccc(NC(C)=O)cc1)=NN(c1nccs1)[C@H](C)C2` [Example 183] as the molecule, how does the ED50 [2, 7] read?
**A.** 8.7 mg/kg

**Q.** And the “sedation and lethargy in the mice” value ([6]; 15 mg/kg i.p. (high dose))?
**A.** caused sedation and lethargy

**Q.** And the “reversal of PCP-induced disruption of PPI” value ([6]; 5, 10, and 15 mg/kg i.p.)?
**A.** significantly reversed

**Q.** And the “reversal of PCP-induced disruption of PPI” value ([6]; all doses (1.5, 5, 10, 15 mg/kg) i.p.)?
**A.** significantly reversed

**Q.** And the melting point?
**A.** 156 to 158 °C

**Q.** And the “effect on PCP induced locomotion” value (PCP-induced locomotion)?
**A.** significantly decreased
